Where two headings read alike, the source gives them in different places.
What was measured:
SARS-CoV-2 Mpro = SARS-CoV-2 Mpro (Severe acute respiratory syndrome coronavirus 2, UniProt P0DTD1); test: SARS-CoV-2 Mpro enzymatic inhibition assay (fluorescence); format: biochemical
Outline: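 Recombinant Mpro expressed in E. coli was preincubated 30 min at room temperature with 10-point, 3-fold serially diluted compound in duplicate. Fluorogenic substrate was then added and incubated 60 min at 30° C, and fluorescence read at Ex/Em 340/490 nm. IC50 came from a four-parameter fit of % inhibition.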

HCoV-229E Mpro = HCoV-229E Mpro (Human coronavirus 229E, UniProt P0C6X1); test: HCoV-229E Mpro enzymatic inhibition assay (fluorescence); format: biochemical
Sequence of HCoV-229E Mpro (P0C6X1 2966-3267 limits assumed): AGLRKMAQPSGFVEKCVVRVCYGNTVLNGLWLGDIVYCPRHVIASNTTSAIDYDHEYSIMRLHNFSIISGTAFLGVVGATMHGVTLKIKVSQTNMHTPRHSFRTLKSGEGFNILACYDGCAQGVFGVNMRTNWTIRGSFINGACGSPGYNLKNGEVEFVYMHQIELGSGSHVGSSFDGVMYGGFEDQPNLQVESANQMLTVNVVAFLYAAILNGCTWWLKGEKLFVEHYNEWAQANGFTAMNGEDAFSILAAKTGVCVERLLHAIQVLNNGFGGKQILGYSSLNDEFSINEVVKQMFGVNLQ

HCoV-HKU1 Mpro = HCoV-HKU1 Mpro (Human coronavirus HKU1, UniProt P0C6X2); test: HCoV-HKU1 Mpro enzymatic inhibition assay (fluorescence); format: biochemical
Sequence of HCoV-HKU1 Mpro (P0C6X2 3335-3637 limits assumed): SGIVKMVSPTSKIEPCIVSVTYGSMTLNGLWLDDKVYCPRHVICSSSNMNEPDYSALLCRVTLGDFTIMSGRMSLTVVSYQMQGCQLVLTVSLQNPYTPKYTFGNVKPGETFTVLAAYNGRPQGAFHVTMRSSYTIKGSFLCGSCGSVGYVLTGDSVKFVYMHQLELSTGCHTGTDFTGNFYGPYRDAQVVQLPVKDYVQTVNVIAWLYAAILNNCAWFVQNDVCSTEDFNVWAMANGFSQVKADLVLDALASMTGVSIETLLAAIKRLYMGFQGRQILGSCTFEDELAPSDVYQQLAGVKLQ
Outline: (§1)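 Recombinant Mpro from E. coli was pre-incubated with compound (3-fold, 10-point dilutions, duplicates) for 30 min at room temperature, then fluorogenic peptide substrate was added and fluorescence read at Ex/Em 340/490 nm after 60 min at 30 °C. IC50 came from four-parameter fits of background-corrected inhibition.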

MERS Mpro = MERS Mpro (Middle East respiratory syndrome-related coronavirus, UniProt K9N7C7); test: biochemical; design: species or system MERS-CoV
Sequence of MERS Mpro (K9N7C7 3248-3553 limits assumed): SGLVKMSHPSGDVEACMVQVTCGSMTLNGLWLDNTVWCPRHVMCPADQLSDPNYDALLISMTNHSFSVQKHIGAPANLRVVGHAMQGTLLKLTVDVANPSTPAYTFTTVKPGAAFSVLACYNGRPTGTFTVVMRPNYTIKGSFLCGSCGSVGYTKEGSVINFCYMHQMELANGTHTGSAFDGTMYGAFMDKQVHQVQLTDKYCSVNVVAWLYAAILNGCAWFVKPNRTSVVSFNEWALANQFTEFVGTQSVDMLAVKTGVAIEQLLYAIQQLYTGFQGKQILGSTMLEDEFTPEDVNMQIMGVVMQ

HCoV-NL63 Mpro = HCoV-NL63 Mpro (Human coronavirus NL63, UniProt P0C6X5); test: HCoV-NL63 Mpro enzymatic inhibition assay (fluorescence); format: biochemical
Sequence of HCoV-NL63 Mpro (P0C6X5 2940-3242 limits assumed): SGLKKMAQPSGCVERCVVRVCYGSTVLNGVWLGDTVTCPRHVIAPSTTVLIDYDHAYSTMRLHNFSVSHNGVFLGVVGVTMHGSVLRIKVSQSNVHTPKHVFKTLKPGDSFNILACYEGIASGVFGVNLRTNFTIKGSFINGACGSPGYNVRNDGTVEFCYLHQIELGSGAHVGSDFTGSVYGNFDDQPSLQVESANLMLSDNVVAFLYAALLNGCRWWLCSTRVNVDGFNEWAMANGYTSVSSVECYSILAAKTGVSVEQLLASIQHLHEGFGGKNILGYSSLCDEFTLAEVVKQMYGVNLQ
Outline: as §1

HCoV-OC43 Mpro = HCoV-OC43 Mpro (Human coronavirus OC43, UniProt P0C6X6); test: HCoV-OC43 Mpro enzymatic inhibition assay (fluorescence); format: biochemical
Sequence of HCoV-OC43 Mpro (P0C6X6 3247-3549 limits assumed): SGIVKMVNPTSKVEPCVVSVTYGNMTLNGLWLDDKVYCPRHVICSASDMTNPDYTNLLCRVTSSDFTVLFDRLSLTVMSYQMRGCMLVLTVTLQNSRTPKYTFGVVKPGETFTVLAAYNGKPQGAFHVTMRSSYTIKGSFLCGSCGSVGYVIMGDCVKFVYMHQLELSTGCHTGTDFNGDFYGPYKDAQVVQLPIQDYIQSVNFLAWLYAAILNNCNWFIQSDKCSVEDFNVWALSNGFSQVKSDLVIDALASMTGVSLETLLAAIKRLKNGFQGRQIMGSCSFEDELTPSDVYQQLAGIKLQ
Outline: as §1

SARS-CoV-1 Mpro = SARS-CoV-1 Mpro (Severe acute respiratory syndrome coronavirus, UniProt P0C6X7); test: biochemical
[1] = mean, 25 nM protein, 25 μM substrate, 30 min pre-incubation, 60 min at 30° C., read-out: Mpro_SARS-CoV-2 mean IC50

Compound | IC50 (SARS-CoV-2 Mpro) [nM] | IC50 (HCoV-229E Mpro) [nM] | IC50 (HCoV-HKU1 Mpro) [nM] | IC50 (MERS Mpro) [nM] | IC50 (HCoV-NL63 Mpro) [nM] | IC50 (HCoV-OC43 Mpro) [nM] | IC50 (SARS-CoV-1 Mpro) [nM] | IC50 (SARS-CoV-2 Mpro; [1]) [nM]
CC(C)c1ccc(F)c2[nH]c(C(=O)N3C[C@H]4[C@@H]([C@H]3C(=O)N[C@H](C=O)C[C@@H]3CCNC3=O)C4(C)C)cc12 [Compound 39, (1R,2S,5S)-3-(7-fluoro-4-isopropyl-1H-indole-2-carbonyl)-6,6-dimethyl-N—((S)-1-oxo-3-((S)-2-oxopyrrolidin-3-yl)propan-2-yl)-3-azabicyclo[3.1.0]hexane-2-carboxamide] | 21.6 | 26.4 | 16 | 208 | 40 | 35.1 | 30 | –
CC1(C)[C@@H]2[C@@H](C(=O)N[C@H](C=O)C[C@@H]3CCNC3=O)N(C(=O)Cc3ccc4c(c3)CCCC4)C[C@@H]21 [Compound 40, (1R,2S,5S)-6,6-Dimethyl-N—((S)-1-oxo-3-((S)-2-oxopyrrolidin-3-yl)propan-2-yl)-3-(2-(5,6,7,8-tetrahydronaphthalen-2-yl)acetyl)-3-azabicyclo[3.1.0]hexane-2-carboxamide] | 21.7 | 40.1 | 20.4 | 237 | 88.6 | 45.7 | 35.3 | –
CC1(C)[C@@H]2[C@@H](C(=O)N[C@H](C=O)C[C@@H]3CCNC3=O)N(C(=O)c3cc4c(Cl)cccc4[nH]3)C[C@@H]21 [Compound 43, (1R,2S,5S)-3-(4-Chloro-1H-indole-2-carbonyl)-6,6-dimethyl-N—((S)-1-oxo-3-((S)-2-oxopyrrolidin-3-yl)propan-2-yl)-3-azabicyclo[3.1.0]hexane-2-carboxamide] | 22.1 | 39.3 | 18 | 236 | 47.5 | 45.4 | 25.8 | –
O=C[C@H](C[C@@H]1CCNC1=O)NC(=O)[C@@H]1CC2(CC2)CN1C(=O)c1cc2ccccc2[nH]1 [Compound 47, (S)-5-(1H-Indole-2-carbonyl)-N—((S)-1-oxo-3-((S)-2-oxopyrrolidin-3-yl)propan-2-yl)-5-azaspiro[2.4]heptane-6-carboxamide] | – | 47.8 | 16.8 | 139 | 48 | 64 | 43 | 22.8
CC(C)(C(=O)N1C[C@H]2[C@@H]([C@H]1C(=O)N[C@H](C=O)C[C@@H]1CCNC1=O)C2(C)C)c1ccccc1 [Compound 48, (1R,2S,5S)-6,6-dimethyl-3-(2-methyl-2-phenylpropanoyl)-N—((S)-1-oxo-3-((S)-2-oxopyrrolidin-3-yl)propan-2-yl)-3-azabicyclo[3.1.0]hexane-2-carboxamide] | – | 86.9 | 73.4 | 484 | 376 | 164 | 53.6 | 22.9
CC1(C)[C@@H]2[C@@H](C(=O)N[C@H](C=O)C[C@@H]3CCNC3=O)N(C(=O)c3cc4c(F)ccc(Cl)c4[nH]3)C[C@@H]21 [Compound 49, (1R,2S,5S)-3-(7-chloro-4-fluoro-1H-indole-2-carbonyl)-6,6-dimethyl-N—((S)-1-oxo-3-((S)-2-oxopyrrolidin-3-yl)propan-2-yl)-3-azabicyclo[3.1.0]hexane-2-carboxamide] | 23 | 31.5 | 23.4 | 202 | 57.6 | 37 | 29.4 | –
CC1(C)C[C@@H](C(=O)N[C@H](C=O)C[C@@H]2CCNC2=O)N(C(=O)c2cc3c(F)cccc3[nH]2)C1 [Compound 51, (S)-1-(4-Fluoro-1H-indole-2-carbonyl)-4,4-dimethyl-N—((S)-1-oxo-3-((S)-2-oxopyrrolidin-3-yl)propan-2-yl)pyrrolidine-2-carboxamide] | 24.4 | 27.3 | 13 | 192 | 22.2 | 21.9 | 38 | –
CC1CCC(CC(=O)N2C[C@H]3[C@@H]([C@H]2C(=O)N[C@H](C=O)C[C@@H]2CCNC2=O)C3(C)C)CC1 (stereo partly drawn) [Compound 52, (1R,2S,5S)-6,6-dimethyl-3-(2-(4-methylcyclohexyl)acetyl)-N—((S)-1-oxo-3-((S)-2-oxopyrrolidin-3-yl)propan-2-yl)-3-azabicyclo[3.1.0]hexane-2-carboxamide] | 24.6 | 31.4 | 25 | 214 | 61.3 | 52 | 32.6 | –
CC1(C)[C@@H]2[C@@H](C(=O)N[C@H](C=O)C[C@@H]3CCNC3=O)N(C(=O)CC3CCCCC3)C[C@@H]21 [Compound 53, (1R,2S,5S)-3-(2-cyclohexylacetyl)-6,6-dimethyl-N—((S)-1-oxo-3-((S)-2-oxopyrrolidin-3-yl)propan-2-yl)-3-azabicyclo[3.1.0]hexane-2-carboxamide] | – | 29.7 | 25.6 | 326 | 66.5 | 26.3 | 45.7 | 25
CC1(C)[C@@H]2[C@@H](C(=O)N[C@H](C=O)C[C@@H]3CCNC3=O)N(C(=O)CN3CCCCCC3)C[C@@H]21 [Compound 55, (1R,2S,5S)-3-(2-(Azepan-1-yl)acetyl)-6,6-dimethyl-N—((S)-1-oxo-3-((S)-2-oxopyrrolidin-3-yl)propan-2-yl)-3-azabicyclo[3.1.0]hexane-2-carboxamide] | 25.5 | 39.3 | 54.8 | 317 | 70.2 | 81 | 74.6 | –
COc1ccc2cc(C(=O)N3C[C@H]4[C@@H]([C@H]3C(=O)N[C@H](C=O)C[C@@H]3CCNC3=O)C4(C)C)[nH]c2c1 [Compound 56, (1R,2S,5S)-3-(6-Methoxy-1H-indole-2-carbonyl)-6,6-dimethyl-N—((S)-1-oxo-3-((S)-2-oxopyrrolidin-3-yl)propan-2-yl)-3-azabicyclo[3.1.0]hexane-2-carboxamide] | 25.7 | 42.6 | 12.8 | 291 | 59.9 | 59.8 | 64.7 | –
CC1(C)C[C@@H](C(=O)N[C@H](C=O)C[C@@H]2CCNC2=O)N(C(=O)c2cc3cccc(C#N)c3[nH]2)C1 [Compound 58, (S)-1-(7-Cyano-1H-indole-2-carbonyl)-4,4-dimethyl-N—((S)-1-oxo-3-((S)-2-oxopyrrolidin-3-yl)propan-2-yl)pyrrolidine-2-carboxamide] | 25.8 | 28.5 | 19 | 338 | 40.7 | 56.3 | 62.8 | –
CC1(C)[C@@H]2[C@@H](C(=O)N[C@H](C=O)C[C@@H]3CCNC3=O)N(C(=O)c3cc4c(C#N)cccc4[nH]3)C[C@@H]21 [Compound 59, (1R,2S,5S)-3-(4-Cyano-1H-indole-2-carbonyl)-6,6-dimethyl-N—((S)-1-oxo-3-((S)-2-oxopyrrolidin-3-yl)propan-2-yl)-3-azabicyclo[3.1.0]hexane-2-carboxamide] | – | 42.6 | 22.9 | 230 | 64.1 | 57.5 | 83.4 | 26

Source: patent publication US20260355212A1 (priority 2022, published 2026)
